Data published in ChEMBL document CHEMBL2434882, “A novel [1,2,4] triazolo [1,5-a] pyrimidine-based phenyl-linked steroid dimer: synthesis and its cytotoxic activity” (Eur J Med Chem, 2013).
Active and inactive are the calls of the source. The calls are words filed in the database; no cut-off is given here.

Tests used:
ECa-109 cell line [1] = test: Induction of apoptosis in human EC109 cells assessed as live cells at 10 uM after 12 hrs by annexin V-FITC/propidium iodide staining-based flow cytometric analysis (reference value: 92.1%); type: functional
ECa-109 cell line [2] = test: Induction of apoptosis in human EC109 cells assessed as increase in early apoptotic cells after 12 to 24 hrs by annexin V-FITC/propidium iodide staining-based flow cytometric analysis; type: functional, cell-based
[3] = Cell cycle arrest in human EC109 cells assessed as accumulation at G0/G1 phase at 2.5 uM after 12 hrs by propidium iodide staining-based flow cytometric analysis (reference value: 50.87%); type: functional; conditions: ECa-109
SMMC-7721 = test: Cytotoxicity against human SMMC7721 cells assessed as growth inhibition after 72 hrs by MTT assay; type: functional, cell-based; conditions: SMMC-7721, 72 h
ECa-109 cell line [4] = test: Induction of apoptosis in human EC109 cells assessed as early apoptotic cells at 10 uM after 24 hrs by annexin V-FITC/propidium iodide staining-based flow cytometric analysis (reference value: 3.8%); type: functional
[5] = Disruption of mitochondrial membrane potential in human EC109 cells at 5 uM after 24 hrs by JC1 staining-based flow cytometric analysis (reference value: 8.1%); type: functional, ECa-109
[6] = Selectivity ratio of IC50 for human L02 cells to IC50 for human SMMC7721 cells; type: cell-based, SMMC-7721; conditions: L02 cells versus SMMC7721 cells, read-out: Ratio IC50
ECa-109 cell line [7] = test: Induction of apoptosis in human EC109 cells assessed as activation of caspase-3/9 at 5 to 10 uM after 24 hrs by Western blot analysis; type: functional, cell-based
[8] = Cytotoxicity against human L02 cells assessed as cell viability at 20 uM after 72 hrs by MTT assay relative to control; type: cell-based; conditions: read-out: Activity
[9] = Cell cycle arrest in human EC109 cells assessed as accumulation at G0/G1 phase at 5 uM after 12 hrs by propidium iodide staining-based flow cytometric analysis (reference value: 50.87%); type: functional; conditions: ECa-109
ECa-109 cell line [10] = test: Induction of apoptosis in human EC109 cells assessed as early apoptotic cells at 2.5 uM after 12 hrs by annexin V-FITC/propidium iodide staining-based flow cytometric analysis (reference value: 6.1%); type: functional
ECa-109 cell line [11] = test: Induction of apoptosis in human EC109 cells assessed as late apoptotic cells at 40 uM after 24 hrs by annexin V-FITC/propidium iodide staining-based flow cytometric analysis (reference value: 2.5%); type: functional
[12] = Cell cycle arrest in human EC109 cells assessed as accumulation at G0/G1 phase at 2.5 uM after 24 hrs by propidium iodide staining-based flow cytometric analysis (reference value: 51.57%); type: functional; conditions: ECa-109
ECa-109 cell line [13] = test: Induction of apoptosis in human EC109 cells assessed as live cells at 40 uM after 24 hrs by annexin V-FITC/propidium iodide staining-based flow cytometric analysis (reference value: 93.6%); type: functional
[14] = Cell cycle arrest in human EC109 cells assessed as accumulation at G2/M phase at 2.5 uM after 24 hrs by propidium iodide staining-based flow cytometric analysis (reference value: 6.31%); type: functional; conditions: ECa-109
[15] = Cell cycle arrest in human EC109 cells assessed as accumulation at G0/G1 phase at 5 uM after 24 hrs by propidium iodide staining-based flow cytometric analysis (reference value: 51.57%); type: functional; conditions: ECa-109
ECa-109 cell line [16] = test: Induction of apoptosis in human EC109 cells assessed as damaged cells at 20 uM after 12 hrs by annexin V-FITC/propidium iodide staining-based flow cytometric analysis (reference value: 0.4%); type: functional
ECa-109 cell line [17] = test: Induction of apoptosis in human EC109 cells assessed as early apoptotic cells at 5 uM after 12 hrs by annexin V-FITC/propidium iodide staining-based flow cytometric analysis (reference value: 6.1%); type: functional
ECa-109 cell line [18] = test: Induction of apoptosis in human EC109 cells assessed as damaged cells at 5 uM after 12 hrs by annexin V-FITC/propidium iodide staining-based flow cytometric analysis (reference value: 0.4%); type: functional
ECa-109 cell line [19] = test: Induction of apoptosis in human EC109 cells assessed as late apoptotic cells at 20 uM after 24 hrs by annexin V-FITC/propidium iodide staining-based flow cytometric analysis (reference value: 2.5%); type: functional
[20] = Upregulation of Bax protein expression in human EC109 cells at 5 to 10 uM after 24 hrs by Western blot analysis; type: functional, cell-based; conditions: ECa-109
[21] = Cell cycle arrest in human EC109 cells assessed as accumulation at G2/M phase at 5 uM after 12 hrs by propidium iodide staining-based flow cytometric analysis (reference value: 13.72%); type: functional; conditions: ECa-109
ECa-109 cell line [22] = test: Induction of apoptosis in human EC109 cells assessed as live cells at 10 uM after 24 hrs by annexin V-FITC/propidium iodide staining-based flow cytometric analysis (reference value: 93.6%); type: functional
ECa-109 cell line [23] = test: Induction of apoptosis in human EC109 cells assessed as live cells at 20 uM after 24 hrs by annexin V-FITC/propidium iodide staining-based flow cytometric analysis (reference value: 93.6%); type: functional
ECa-109 cell line [24] = test: Induction of apoptosis in human EC109 cells assessed as damaged cells at 10 uM after 24 hrs by annexin V-FITC/propidium iodide staining-based flow cytometric analysis (reference value: 0.1%); type: functional
[25] = Cell cycle arrest in human EC109 cells assessed as accumulation at S phase at 2.5 uM after 24 hrs by propidium iodide staining-based flow cytometric analysis (reference value: 37.99%); type: functional; conditions: ECa-109
ECa-109 cell line [26] = test: Induction of apoptosis in human EC109 cells assessed as live cells at 2.5 uM after 24 hrs by annexin V-FITC/propidium iodide staining-based flow cytometric analysis (reference value: 93.6%); type: functional
[27] = Cell cycle arrest in human EC109 cells assessed as accumulation at G0/G1 phase at 10 uM after 12 hrs by propidium iodide staining-based flow cytometric analysis (reference value: 50.87%); type: functional; conditions: ECa-109
[28] = Cell cycle arrest in human EC109 cells assessed as accumulation at G2/M phase at 2.5 to 10 uM by propidium iodide staining-based flow cytometric analysis; type: functional; conditions: ECa-109, TDE = time-dependent effect
ECa-109 cell line [29] = test: Induction of apoptosis in human EC109 cells assessed as late apoptotic cells at 5 uM after 24 hrs by annexin V-FITC/propidium iodide staining-based flow cytometric analysis (reference value: 2.5%); type: functional
[30] = Cell cycle arrest in human EC109 cells assessed as accumulation at S phase at 2.5 uM after 12 hrs by propidium iodide staining-based flow cytometric analysis (reference value: 33.29%); type: functional; conditions: ECa-109
MGC-803 = test: Cytotoxicity against human MGC803 cells assessed as growth inhibition after 72 hrs by MTT assay; type: functional, cell-based; conditions: MGC-803, 72 h
ECa-109 cell line [31] = test: Induction of apoptosis in human EC109 cells assessed as late apoptotic cells at 40 uM after 12 hrs by annexin V-FITC/propidium iodide staining-based flow cytometric analysis (reference value: 1.4%); type: functional
ECa-109 cell line [32] = test: Induction of apoptosis in human EC109 cells assessed as damaged cells at 20 uM after 24 hrs by annexin V-FITC/propidium iodide staining-based flow cytometric analysis (reference value: 0.1%); type: functional
ECa-109 cell line [33] = test: Induction of apoptosis in human EC109 cells assessed as increase in late apoptotic cells at 2.5 to 40 uM by annexin V-FITC/propidium iodide staining-based flow cytometric analysis; type: functional, cell-based; conditions: TDE = time-dependent effect

Compound: C[C@]12CC[C@H](O)CC1=CC[C@@H]1[C@@H]2CC[C@]2(C)c3nc4ncnn4c(-c4cccc(-c5c6c(nc7ncnn57)[C@@]5(C)CC[C@H]7[C@@H](CC=C8C[C@@H](O)CC[C@@]87C)[C@@H]5C6)c4)c3C[C@@H]12
- Activity (ECa-109 cell line [1]): 54%
- Activity (ECa-109 cell line [2]): Dose-dependent effect
- Activity [3]: 48.5%
- IC50 (SMMC-7721): 1.68 µM
- Activity (ECa-109 cell line [4]): 24%
- Activity [5]: 40%
- selectivity ratio [6]: 49
- Activity (ECa-109 cell line [7]): Active
- viability at 72 h, 20 µM [8]: 70%
- Activity [9]: 52.9%
- Activity (ECa-109 cell line [10]): 26.9%
- Activity (ECa-109 cell line [11]): 78.4%
- Activity [12]: 52.5%
- Activity (ECa-109 cell line [13]): 8.3%
- Activity [14]: 14.8%
- Activity [15]: 47.1%
- Activity (ECa-109 cell line [16]): 2.1%
- Activity (ECa-109 cell line [17]): 24.1%
- Activity (ECa-109 cell line [18]): 2%
- Activity (ECa-109 cell line [19]): 58.9%
- Activity [20]: Active
- Activity [21]: 20.8%
- Activity (ECa-109 cell line [22]): 25.4%
- Activity (ECa-109 cell line [23]): 7.2%
- Activity (ECa-109 cell line [24]): 2.9%
- Activity [25]: 43.5%
- Activity (ECa-109 cell line [26]): 72.3%
- Activity [27]: 48.6%
- Activity [28]: tde
- Activity (ECa-109 cell line [29]): 12.2%
- Activity [30]: 34.2%
- IC50 (MGC-803): 0.13 µM
- Activity (ECa-109 cell line [31]): 65.3%
- Activity (ECa-109 cell line [32]): 2.4%
- Activity (ECa-109 cell line [33]): tde
